Measured values as given in patent US20130216634A1, “Herbal Supplement Prepared From Pelargonium Citronellum” (priority 2011, published 2013).
Where two headings read alike, the source gives them in different places.

Key:
[1] = tested on: 25 different bacterial species, 20 different Listeria monocytogenes cultivars, three different fungi; settings: singly or in combination, in the percentages listed by the ISO; cited from earlier work
mouse = settings: cited from earlier work
adult human = assay: LD50, adult human (equivalent / reported); settings: 143 lb (65 kg) adult human

Compound	Bioactivity (antibacterial, antifungal, anti-oxidant) [1]	LD50 (mouse; intraperitoneal administration) [mg/kg]	LD50 (mouse; intravenous) [mg/kg]	LD50 equivalent for adult human (adult human; intraperitoneally injected) [milligrams]	LD50 equivalent for adult human (adult human; intravenously injected) [mg]
CC(C)=CCCC(C)CCO (stereo not drawn) [citronellol]	very potent	–	–	–	–
CC(C)=CCC/C(C)=C/CO [geraniol]	very potent	–	–	–	–
CCC(C)CC(C)N (stereo not drawn) [methylhexaneamine, Methylhexaneamine]	–	185	39	978	206
